{"source": "patent US11518760B2", "about": "(Liverpool School of Tropical Medicine, priority 2017, dated 2022)"}
{"test_system": "C6/36 Aedes albopictus cell line infected with Wolbachia pipientis (Wolbachia strain wAlbB)", "assay": "In vitro insect cell line assay (anti-Wolbachia screen, SYTO 11 high content imaging)", "assay_type": "cell-based", "conditions": "168 h; C6/36 Aedes albopictus cells infected with Wolbachia pipientis wAlbB, 7 days incubation, SYTO 11 imaging; read-out: In vitro anti-Wolbachia activity", "method_in_brief": "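SYTO 11 staining (15 min), high-content imaging and texture analysis were the read-out on day 7. Before that, C6/36 mosquito cells carrying Wolbachia strain wAlbB were incubated at 26 °C with test compound at 5 μM final, alongside DMSO-only control wells.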", "units": {"EC50": "nM"}}
{"smiles": "FC(F)(F)c1ccccc1C1CCN1c1nc(N2CCC(Cl)CC2)nc2ncccc12", "note": "(stereo not shown) [Example 212, 2-(4-chloropiperidin-1-yl)-4-(2-(2-(trifluoromethyl)phenyl)azetidin-1-yl)pyrido[2,3-d]pyrimidine]", "EC50": "100 to 1000"}
{"smiles": "FC(F)(F)c1ncccc1CNc1nc(N2CCCC(C(F)(F)F)C2)nc2ncccc12", "note": "(stereo not shown) [Example 249, 2-(3-(trifluoromethyl)piperidin-1-yl)-N-((2-(trifluoromethyl)pyridin-3-yl)methyl)pyrido[2,3-d]pyrimidin-4-amine]", "EC50": "< 0.01"}
{"smiles": "CC(C)Nc1nc(NCc2ccc(C#N)cc2)c2sccc2n1", "note": "[Example 116, N^4-(4-cyanobenzyl)-N^2-isopropylthieno[3,2-d]pyrimidine-2,4-diamine]", "EC50": "100 to 1000"}
{"smiles": "Cc1ccc(-c2cnc3ncnc(NCc4cccnc4C(F)(F)F)c3c2)cn1", "note": "[Example 181]", "EC50": "1000 to 100000"}
{"smiles": "FC(F)(F)c1ncccc1CNc1nc(CN2CC(C(F)(F)F)C2)nc2ncccc12", "note": "[Example 231, 2-((3-(trifluoromethyl)azetidin-1-yl)methyl)-N-((2-(trifluoromethyl)pyridin-3-yl)methyl)pyrido[2,3-d]pyrimidin-4-amine]", "EC50": "100 to 1000"}
{"smiles": "CC(C)Nc1nc(NCc2ccc(C#N)cc2)c2ncccc2n1", "note": "[Example 121, N^4-(4-cyanobenzyl)-N^2-isopropylpyrido[3,2-d]pyrimidine-2,4-diamine]", "EC50": "1000 to 100000"}
{"smiles": "COc1cnc2nc(N3CCOCC3C)nc(NCc3cccnc3C(F)(F)F)c2c1", "note": "(stereo not shown) [Example 304]", "EC50": "1000 to 100000"}
{"smiles": "CC(C)(C)N(Cc1ccccc1C(F)(F)F)c1ncnc2ccsc12", "note": "[Example 85]", "EC50": "100 to 1000"}
{"smiles": "COc1ccc(CNc2nc(NC(C)C)nc3ccccc23)cc1", "note": "[Example 138, N^2-isopropyl-N^4-(4-methoxybenzyl)quinazoline-2,4-diamine]", "EC50": "1000 to 100000"}
{"smiles": "O=C(Nc1nc(NCc2cccnc2C(F)(F)F)c2cccnc2n1)Nc1ccccc1F", "note": "[Example 206, 1-(2-fluorophenyl)-3-(4-(((2-(trifluoromethyl)pyridin-3-yl)methyl)amino)pyrido[2,3-d]pyrimidin-2-yl)urea]", "EC50": "100 to 1000"}
{"smiles": "CC(C)Nc1nc(NCc2cccnc2C(F)(F)F)c2ncccc2n1", "note": "[Example 152, N^2-isopropyl-N^4-((2-(trifluoromethyl)pyridin-3-yl)methyl)pyrido[3,2-d]pyrimidine-2,4-diamine]", "EC50": "100 to 1000"}
{"smiles": "FC(F)(F)c1ccccc1CNc1nc(N2CCOCC23CCCC3)nc2ncccc12", "note": "[Example 286, 2-(9-oxa-6-azaspiro[4.5]decan-6-yl)-N-(2-(trifluoromethyl)benzyl)pyrido[2,3-d]pyrimidin-4-amine]", "EC50": "100 to 1000"}
{"smiles": "FC(F)(F)c1ncccc1CNc1nc(N2CC3CC(C2)O3)nc2ncccc12", "note": "[Example 293, 2-(6-oxa-3-azabicyclo[3.1.1]heptan-3-yl)-N-((2-(trifluoromethyl)pyridin-3-yl)methyl)pyrido[2,3-d]pyrimidin-4-amine]", "EC50": "1 to 10"}
{"smiles": "CC(O)c1nc(NCc2ccccc2C(F)(F)F)c2sccc2n1", "note": "(stereo not shown) [Example 84]", "EC50": "1000 to 100000"}
{"smiles": "CC(C)Nc1nc(NCc2ccccc2F)c2ccccc2n1", "note": "[Example 135, N^4-(2-fluorobenzyl)-N^2-isopropylquinazoline-2,4-diamine]", "EC50": "1000 to 100000"}
{"smiles": "CC(C)Nc1nc(NCc2ccccc2S(C)(=O)=O)c2ccccc2n1", "note": "[Example 112, N^2-isopropyl-N^4-(2-(methylsulfonyl)benzyl)quinazoline-2,4-diamine]", "EC50": "100 to 1000"}
{"smiles": "FC(F)(F)c1ncccc1CNc1ncnc2ncccc12", "note": "[Example 170, N-((2-(trifluoromethyl)pyridin-3-yl)methyl)pyrido[2,3-d]pyrimidin-4-amine]", "EC50": "1000 to 100000"}
{"smiles": "COc1ccc2c(NCc3cccnc3C(F)(F)F)nc(N3CCOCC3C)nc2n1", "note": "(stereo not shown) [Example 305, 7-methoxy-2-(3-methylmorpholino)-N-((2-(trifluoromethyl)pyridin-3-yl)methyl)pyrido[2,3-d]pyrimidin-4-amine]", "EC50": "1000 to 100000"}
{"smiles": "FC(F)(F)c1ncccc1CNc1nc(N2CCOC3CC32)nc2ncccc12", "note": "(stereo not shown) [Example 294, 2-(2-oxa-5-azabicyclo[4.1.0]heptan-5-yl)-N-((2-(trifluoromethyl)pyridin-3-yl)methyl)pyrido[2,3-d]pyrimidin-4-amine]", "EC50": "0.01 to 1"}
{"smiles": "CCNC(=O)Nc1nc(NCc2cccnc2C(F)(F)F)c2cccnc2n1", "note": "[Example 207, 1-ethyl-3-(4-(((2-(trifluoromethyl)pyridin-3-yl)methyl)amino)pyrido[2,3-d]pyrimidin-2-yl)urea]", "EC50": "100 to 1000"}
{"smiles": "Fc1ccccc1CNc1nc(Cl)nc2ccsc12", "note": "[Example 10]", "EC50": "1000 to 100000"}
{"smiles": "CC(C)Nc1nc(NCc2ccccc2)c2sccc2n1", "note": "[Example 12, N^4-benzyl-N^2-isopropylthieno[3,2-d]pyrimidine-2,4-diamine]", "EC50": "1000 to 100000"}
{"smiles": "CN1CC(Nc2nc(NCc3ccccc3C(F)(F)F)c3cccnc3n2)C1", "note": "[Example 142, N^2-(1-methylazetidin-3-yl)-N^4-(2-(trifluoromethyl)benzyl)pyrido[2,3-d]pyrimidine-2,4-diamine]", "EC50": "1000 to 100000"}
{"smiles": "FC(F)Sc1nc(NCc2cccnc2C(F)(F)F)c2cccnc2n1", "note": "[Example 191, 2-((difluoromethyl)thio)-N-((2-(trifluoromethyl)pyridin-3-yl)methyl)pyrido[2,3-d]pyrimidin-4-amine]", "EC50": "100 to 1000"}
{"smiles": "CC(C)(O)c1nc(NCc2ccccc2C(F)(F)F)c2sccc2n1", "note": "[Example 86]", "EC50": "1000 to 100000"}
{"smiles": "CC(C)Nc1nc(NCc2ccccc2C(F)(F)F)c2sccc2n1", "note": "[Example 28, N^2-isopropyl-N^4-(2-(trifluoromethyl)benzyl)thieno[3,2-d]pyrimidine-2,4-diamine]", "EC50": "10 to 100"}
{"smiles": "COc1cccc(CNc2nc(NC(C)C)nc3ccsc23)c1F", "note": "[Example 26, N^4-(2-fluoro-3-methoxybenzyl)-N^2-isopropylthieno[3,2-d]pyrimidine-2,4-diamine]", "EC50": "100 to 1000"}
{"smiles": "CC(C)N(C)c1nc(N(C)Cc2cccnc2C(F)(F)F)c2cccnc2n1", "note": "[Example 161, N^2-isopropyl-N^2,N^4-dimethyl-N^4-((2-(trifluoromethyl)pyridin-3-yl)methyl)pyrido[2,3-d]pyrimidine-2,4-diamine]", "EC50": "1 to 10"}
{"smiles": "CCN(Cc1ccccc1C(F)(F)F)c1ncnc2ccsc12", "note": "[Example 54, N-ethyl-N-(2-(trifluoromethyl)benzyl)thieno[3,2-d]pyrimidin-4-amine]", "EC50": "1 to 10"}
{"smiles": "FC1(F)CC2(CCN(c3nc(NCc4cccnc4C(F)(F)F)c4cccnc4n3)CC2)C1", "note": "[Example 252, 2-(2,2-difluoro-7-azaspiro[3.5]nonan-7-yl)-N-((2-(trifluoromethyl)pyridin-3-yl)methyl)pyrido[2,3-d]pyrimidin-4-amine]", "EC50": "0.01 to 1"}
{"smiles": "CC(C)Nc1nc(NCc2cccnc2C(F)(F)F)c2ccccc2n1", "note": "[Example 151, N^2-isopropyl-N^4-((2-(trifluoromethyl)pyridin-3-yl)methyl)quinazoline-2,4-diamine]", "EC50": "100 to 1000"}
{"smiles": "COc1ccc(CNc2nc(NC(C)C)nc3ccccc23)cc1OC", "note": "[Example 140, N^4-(3,4-dimethoxybenzyl)-N^2-isopropylquinazoline-2,4-diamine]", "EC50": "100 to 1000"}
{"smiles": "CC(C)Nc1nc(NCc2cccc(F)c2)c2sccc2n1", "note": "[Example 14, N^4-(3-fluorobenzyl)-N^2-isopropylthieno[3,2-d]pyrimidine-2,4-diamine]", "EC50": "100 to 1000"}
{"smiles": "Cc1nc(N(C)Cc2ccccc2C(F)(F)F)c2sccc2n1", "note": "[Example 63, N,2-dimethyl-N-(2-(trifluoromethyl)benzyl)thieno[3,2-d]pyrimidin-4-amine]", "EC50": "10 to 100"}
{"smiles": "FC(F)(F)c1ccccc1CNc1nc(NC2CC2)nc2ncccc12", "note": "[Example 156, N^2-cyclopropyl-N^4-(2-(trifluoromethyl)benzyl)pyrido[2,3-d]pyrimidine-2,4-diamine]", "EC50": "1 to 10"}
{"smiles": "Oc1nc(NCc2cccnc2C(F)(F)F)c2cccnc2n1", "note": "[Example 182, 4-(((2-(trifluoromethyl)pyridin-3-yl)methyl)amino)pyrido[2,3-d]pyrimldin-2-ol]", "EC50": "1000 to 100000"}
{"smiles": "FC(F)(F)c1cccc2c1CN(c1ncnc3ccsc13)C2", "note": "[Example 83]", "EC50": "1000 to 100000"}
{"smiles": "COc1ccccc1CNc1nc(NC(C)C)nc2ccsc12", "note": "[Example 132, N^2-isopropyl-N^4-(2-methoxybenzyl)thieno[3,2-d]pyrimidine-2,4-diamine]", "EC50": "1000 to 100000"}
{"smiles": "CN(C)CCNc1nc(NCc2ccccc2C(F)(F)F)c2sccc2n1", "note": "[Example 89, N^2-(2-(dimethylamino)ethyl)-N^4-(2-(trifluoromethyl)benzyl)thieno[3,2-d]pyrimidine-2,4-diamine]", "EC50": "1000 to 100000"}
{"smiles": "CC(C)(C)Nc1nc(NCc2ccccc2C(F)(F)F)c2sccc2n1", "note": "[Example 41, N^2-(tert-butyl)-N^4-(2-(trifluoromethyl)benzyl)thieno[3,2-d]pyrimidine-2,4-diamine]", "EC50": "10 to 100"}
{"smiles": "FC(F)(F)c1ncccc1CNc1ncnc2ncc(Br)cc12", "note": "[Example 180]", "EC50": "1000 to 100000"}
{"smiles": "CC1(C)COCCN1c1nc(NCc2cccnc2C(F)(F)F)c2cccnc2n1", "note": "[Example 240, 2-(3,3-dimethylmorpholino)-N-((2-(trifluoromethyl)pyridin-3-yl)methyl)pyrido[2,3-d]pyrimidin-4-amine]", "EC50": "0.01 to 1"}
{"smiles": "FCC1CCCN(c2nc(NCc3cccnc3C(F)(F)F)c3cccnc3n2)C1", "note": "(stereo not shown) [Example 258, 2-(3-(fluoromethyl)piperidin-1-yl)-N-((2-(trifluoromethyl)pyridin-3-yl)methyl)pyrido[2,3-d]pyrimidin-4-amine]", "EC50": "< 0.01"}
{"smiles": "CC(C)Nc1nc(NCc2ccc(S(C)(=O)=O)cc2)c2ccccc2n1", "note": "[Example 110, N^2-isopropyl-N^4-(4-(methylsulfonyl)benzyl)quinazoline-2,4-diamine]", "EC50": "1000 to 100000"}
{"smiles": "CC1CCN1c1nc(NCc2cccnc2C(F)(F)F)c2cccnc2n1", "note": "(stereo not shown) [Example 172, 2-(2-methylazetidin-1-yl)-N-((2-(trifluoromethyl)pyridin-3-yl)methyl)pyrido[2,3-d]pyrimidin-4-amine]", "EC50": "0.01 to 1"}
{"smiles": "FC(F)(F)c1ccccc1CNc1nc(NCCN2CCOCC2)nc2ccsc12", "note": "[Example 90, N^2-(2-morpholinoethyl)-N^4-(2-(trifluoromethyl)benzyl)thieno[3,2-d]pyrimidine-2,4-diamine]", "EC50": "1000 to 100000"}
